In ChEMBL document CHEMBL1134806, “Parallel solid-phase synthesis of nucleoside phosphoramidate libraries” (Bioorg Med Chem Lett, 2001):

Tests used:
Hepatitis B virus [1] = experiment: Cytotoxic activity was determined against Hepatitis B virus (HBV) at 10 uM using HepG2-derived 2.2.15 cell lines; type: functional; conditions: HepG2 2.2.15
Hepatitis B virus [2] = experiment: Inhibitory activity was determined against Hepatitis B virus (HBV) at 10 uM using HepG2-derived 2.2.15 cell lines; type: functional, organism-based

IC50 (Hepatitis B virus [2]) [µM] | Compound | CC50 (Hepatitis B virus [1]) [µM]
2.1 | Nc1nc(O)c2ncn([C@H]3C[C@H](O)[C@@H](COP(=O)(O)O[C@@H]4C[C@@H](n5cnc6c(N)ncnc65)O[C@H]4COP(=O)(O)NC4CCCN4)O3)c2n1 (some centres undefined) | > 300
4.4 | COc1ccc(CCNP(=O)(O)OC[C@H]2O[C@@H](n3ccc(=O)[nH]c3=O)[C@H](OC)[C@@H]2OP(=O)(O)OC[C@H]2O[C@@H](n3cnc4c(N)ncnc43)C[C@@H]2O)cc1OC | > 300
